{
  "source": "patent EP1169036B1",
  "about": "“ANTI-VIRAL USES OF LEFLUNOMIDE PRODUCTS” (priority 1998, dated 1999)",
  "key": {"[1]": {"test_system": "African green monkey kidney (CV-1) cells", "assay": "cells", "format": "cell-based", "settings": "Chlorocebus sabaeus, read-out: CPE Inhibition test IC50"}, "[2]": {"test_system": "African green monkey kidney (MA-104) cells", "assay": "Cytotoxicity, neutral red uptake by toxicity control cells", "format": "cell-based", "settings": "Chlorocebus sabaeus, MA104, cytotoxic concentration, positive control drug = ribavirin, read-out: Neutral Red Uptake test IC50"}, "[3]": {"test_system": "human lung carcinoma (A549) cells", "assay": "cells", "format": "cell-based", "settings": "read-out: Neutral Red Uptake test IC50"}, "CMV strain VHL/E": {"test_system": "CMV strain VHL/E", "assay": "Transmission electron microscopy of virion morphology in CMV-infected HUVEC", "format": "cell-based", "settings": "200 µM A771726, 4-7 days", "protocol": "Transmission electron microscopy.was employed to directly examine virion morphology within A771726-treated or untreated CMV-infected HUVEC. HUVEC monolayers in 6-well culture plates were inoculated with CMV strain VHL/E (1.0 PFU/cell) in the presence or absence of 200 µM A771726 as described above, and incubated for 4-7 days. Cells were harvested by brief trypsin digestion, washed twice in PBS, then fixed by the.addition of 1 ml 2% phosphate buffered gluteraldehyde and again pelleted by centrifugation. Specimens were post-fixed in 1% phosphate buffered osmium tetroxide (1 hour), then dehydrated in graded ethanol washes. Specimens were embedded in Spur low viscosity embedding media (SEM). Blocks were cured for a minimum of 12 hours at 70°C. Thin sections (approximately 100 nm) were cut from cured blocks using an ultramicrotome (LKB Nova), and mounted on 200 mesh copper grids. Grids were heavy metal-stained using a standard two-step uranyl acetate/lead citrate technique, then examined and photographed at 80 kV with a Zeiss EM900 transmission electron microscope by an individual with no knowledge of the nature of the investigation."}, "uninfected cells [4]": {"test_system": "uninfected cells", "assay": "Cytotoxicity, microscopic reading of uninfected cells in the CPE inhibition test (rhinovirus host cells, not named)", "format": "cell-based", "protocol": "(§1) Cytotoxicity of each test compound is also evaluated as follows. In the initial CPE inhibition tests, two wells of uninfected cells treated with each concentration of test compound are run in parallel with the infected, treated wells. When the CPE is determined microscopically, the toxicity control cells are also examined microscopically for any changes in cell appearance compared to normal uninfected, untreated control cells. Changes, which may manifest as enlargement, granularity, ragged edges, filmy appearance, rounding, detachment from the surface of the well, or other changes, are given a designation of T (100% toxic), PVH (partially toxic-very heavy-80%), PH (partially toxic-heavy-60%), P (partially toxic-40%), PS (partially toxic-slight-20%) or 0 (no toxicity-0%) in accordance with the degree of cytotoxicity observed. […] A neutral red IC50 is also determined based on uptake of neutral red dye by the toxicity control cells."}, "uninfected cells [5]": {"test_system": "uninfected cells", "assay": "Cytotoxicity, neutral red uptake by toxicity control cells (rhinovirus host cells, not named)", "format": "cell-based", "settings": "read-out: Neutral Red Uptake test IC50", "protocol": "as §1"}, "HSV DNA polymerase": {"biological_target": "T1, HSV DNA polymerase (Human herpesvirus 1, UniProt P04293)", "T1 construct": "a biochemical assay of HSV DNA polymerase activity in HSV-infected cells; endogenous in cells", "T1 sequence (P10226 whole entry)": "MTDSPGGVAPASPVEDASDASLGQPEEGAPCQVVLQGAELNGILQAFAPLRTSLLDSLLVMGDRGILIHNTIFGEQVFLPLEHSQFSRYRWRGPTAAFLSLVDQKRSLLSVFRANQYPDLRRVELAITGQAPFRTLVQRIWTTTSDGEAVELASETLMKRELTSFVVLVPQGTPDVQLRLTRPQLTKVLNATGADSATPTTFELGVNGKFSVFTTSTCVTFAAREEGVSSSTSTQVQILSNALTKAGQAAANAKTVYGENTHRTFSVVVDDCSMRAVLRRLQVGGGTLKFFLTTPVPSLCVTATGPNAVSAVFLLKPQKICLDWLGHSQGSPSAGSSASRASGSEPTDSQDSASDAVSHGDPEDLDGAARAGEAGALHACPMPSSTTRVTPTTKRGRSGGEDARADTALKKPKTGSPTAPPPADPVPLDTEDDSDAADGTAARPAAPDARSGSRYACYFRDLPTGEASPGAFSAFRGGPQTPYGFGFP", "T1 sequence (P04293 whole entry)": "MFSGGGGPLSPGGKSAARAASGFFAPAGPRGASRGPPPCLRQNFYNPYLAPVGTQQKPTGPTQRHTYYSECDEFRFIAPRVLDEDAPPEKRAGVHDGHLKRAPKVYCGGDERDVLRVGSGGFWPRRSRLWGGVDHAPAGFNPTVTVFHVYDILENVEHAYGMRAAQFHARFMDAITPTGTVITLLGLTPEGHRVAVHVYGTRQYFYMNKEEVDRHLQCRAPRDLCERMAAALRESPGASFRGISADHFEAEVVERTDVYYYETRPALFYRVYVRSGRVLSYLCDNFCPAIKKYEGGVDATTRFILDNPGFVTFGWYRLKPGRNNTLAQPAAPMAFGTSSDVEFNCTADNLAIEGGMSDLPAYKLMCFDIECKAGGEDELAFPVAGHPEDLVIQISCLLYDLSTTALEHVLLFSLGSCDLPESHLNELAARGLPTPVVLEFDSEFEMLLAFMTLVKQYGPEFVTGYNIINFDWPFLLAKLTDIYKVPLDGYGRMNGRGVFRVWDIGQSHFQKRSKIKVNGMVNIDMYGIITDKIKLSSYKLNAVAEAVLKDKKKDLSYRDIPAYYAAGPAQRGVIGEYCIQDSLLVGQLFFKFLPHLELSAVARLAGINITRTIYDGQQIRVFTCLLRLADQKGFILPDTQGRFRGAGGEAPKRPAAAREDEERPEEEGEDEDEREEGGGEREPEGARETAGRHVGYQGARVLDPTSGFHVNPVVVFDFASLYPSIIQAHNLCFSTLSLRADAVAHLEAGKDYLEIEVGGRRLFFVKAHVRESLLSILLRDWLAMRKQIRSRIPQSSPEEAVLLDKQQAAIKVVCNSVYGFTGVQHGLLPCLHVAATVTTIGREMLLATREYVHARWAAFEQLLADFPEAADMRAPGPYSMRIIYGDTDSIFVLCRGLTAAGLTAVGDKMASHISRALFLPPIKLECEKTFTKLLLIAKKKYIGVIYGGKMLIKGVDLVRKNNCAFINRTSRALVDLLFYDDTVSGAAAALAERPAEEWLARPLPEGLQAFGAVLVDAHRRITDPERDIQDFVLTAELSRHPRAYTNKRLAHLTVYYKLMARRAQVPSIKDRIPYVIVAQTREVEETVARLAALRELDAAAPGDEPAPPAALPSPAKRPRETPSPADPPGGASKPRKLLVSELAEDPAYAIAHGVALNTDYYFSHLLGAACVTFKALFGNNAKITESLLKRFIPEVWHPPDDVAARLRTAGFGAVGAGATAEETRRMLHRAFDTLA", "assay": "HSV DNA polymerase biochemical assay", "settings": "all HSV isolates in VERO cells and HUVEC"}, "[6]": {"test_system": "viral immediate early (IE1) or late glycoprotein (gB) mRNA", "assay": "Northern blot of viral mRNA in infected HUVEC", "format": "cell-based, CMV", "settings": "200 µM A771726, 48 hours", "protocol": "Northern blot analysis was employed to determine whether A771726 quantitatively affected transcription of viral immediate early (IE1) or late glycoprotein (gB) mRNA.\nHUVEC monolayers in 6-well culture plates were inoculated with CMV strain VHL/E (0.5 PFU/cell) in the presence or absence of 200 µM A771726 and/or 200 µM uridine (6 wells/treatment) as described above, and incubated for 48 hours. […] Total cytoplasmic RNA was isolated from each culture, by 18-hour ultracentrifugation of guanidine isothiocyanate/BME extracts overlayed on cesium chloride cushions. […] 50 ng of full-length IE1 and gB were incubated in a 50 µl PCR reaction including a nucleotide triphosphate mix containing 700 nM α-[^32P]dCTP (Amersham) and either IE1 primers [IE1 sense: 5' […] 3' (SEQ ID NO: 1) and IE1 antisense: 5'[…] 3' (SEQ ID NO: 2)] or gB primers [gB sense: 5 […] 3' (SEQ ID NO: 3) and gB antisense: 5' […] 3' (SEQ ID NO: 4)]. A cDNA probe for GAPDH was radiolabelled using a random priming kit (Decaprime II, Ambion, Inc., Austin TX) as previously described. […] Membranes were hybridized, washed, and bound probe was detected by autoradiography as previously described. Membranes were stripped and reprobed for GAPDH, and scanning densitometry was used to quantitate IE1 and gB band densities, and to normalize these values to those of GAPDH."}, "[7]": {"test_system": "African green monkey kidney (MA-104) cells", "assay": "cells", "format": "cell-based", "settings": "Chlorocebus sabaeus, MA104, cytotoxic concentration, positive control drug = ribavirin, read-out: CPE Inhibition test IC50"}, "HSV": {"test_system": "HSV", "assay": "Transmission electron microscopy of virion morphology in HSV-infected HUVEC", "format": "cell-based"}, "[8]": {"test_system": "Madin Darby canine kidney (MDCK) cells", "assay": "cells", "format": "cell-based", "settings": "Canis lupus familiaris, cytotoxic concentration, positive control drug = ribavirin, read-out: CPE Inhibition test IC50"}, "[9]": {"settings": "run with Parainfluenza Type 3 Virus"}, "[10]": {"settings": "run with Respiratory Syncytial Virus A"}},
  "note": "Where two headings read alike, the source gives them in different places.",
  "data": [
    {"smiles": "C/C(O)=C(\\C#N)C(=O)Nc1ccc(C(F)(F)F)cc1", "note": "[Compound A771726, N-(4-trifluoromethylphenyl)-2-cyano-3-hydroxycrotonamide]", "values": [
      {"measurement": "IC50", "setting": "[1]", "value": "> 660", "unit": "µM"},
      {"measurement": "IC50", "setting": "[2]; [9]", "value": 50, "unit": "µM"},
      {"measurement": "IC50", "setting": "[2]; [10]", "value": 143, "unit": "µM"},
      {"measurement": "IC50", "setting": "[3]", "value": 580, "unit": "µM"},
      {"measurement": "virion morphology in the cytoplasm", "setting": "CMV strain VHL/E", "value": "viral particles appeared not to have matured far beyond the 100 nM naked capsid stage"},
      {"measurement": "IC50", "setting": "uninfected cells [4]", "value": 1000, "unit": "µM"},
      {"measurement": "IC50", "setting": "uninfected cells [5]", "value": 500, "unit": "µM"},
      {"measurement": "HSV DNA polymerase activity", "setting": "HSV DNA polymerase", "value": "no detectable inhibitory effect"},
      {"measurement": "transcription of IE1 or gB genes", "setting": "[6]", "value": "no inhibitory effect"},
      {"measurement": "IC50", "setting": "[7]; [9]", "value": 30, "unit": "µM"},
      {"measurement": "IC50", "setting": "[7]; [10]", "value": 20, "unit": "µM"},
      {"measurement": "virion morphology, tegument acquisition", "setting": "HSV", "value": "appear not to acquire tegument"},
      {"measurement": "IC50", "setting": "[8]; run with Influenza A (H1N1)", "value": 29, "unit": "µM"},
      {"measurement": "IC50", "setting": "[8]; run with Influenza A (H3N2)", "value": 30, "unit": "µM"},
      {"measurement": "IC50", "setting": "[8]; run with Influenza B", "value": 50, "unit": "µM"}
    ]}
  ]
}
